Data reported in patent publication US11306100B2, “Spirooxindole compounds as GSK3B inhibitors and process for preparation thereof” (COUNCIL OF SCIENTIFIC & INDUSTRIAL RESEARCH, priority 2017, dated 2022).

Experiments:
Assay type in all cases: cell-based
PANC-1 cells [1] = test: Cell viability, Sulforhodamine B assay; settings: for inhibition at 30 µM: Homo sapiens, PANC-1, 30 μM compound in combination with TRAIL (10 ηg/mL), read-out: inhibition of cell growth; for effectiveness against cell growth / sensitisation to TRAIL: in combination with TRAIL (10 ηg/mL), FIG. 3A
Description: Cell viability was measured using Sulforhodamine B assay. The cytotoxic effect of the compounds with GSK3β inhibitory potential was tested against PANC-1 cells. Initially, the PANC-1 cells were seeded in flat bottom 96-well plate (5000 cells/100 μL) in complete medium and cultured for 18 hrs under standard conditions. After 18 h the cells were treated with either the different concentration of compounds, standard drugs or DMSO as solvent control. The final DMSO concentration to cells was maintained <2% in all cytotoxic assays. Each compound was tested in triplicate and the cytotoxicity was determined as the average of that triplicate. Further, the plates were incubated for another 48 h in an incubator maintained at 37° C. with a constant supply of 5% CO2. The cells were fixed using 10% TCA and incubated for 1 h at 4° C. Then the plates were rinsed carefully with MQ water and air dried at room temperature. To all the wells of MTP plate 0.057% SRB solution was added and kept for approximately 30 min before it was rinsed off using 1% acetic acid. The plates were then air dried and 100 μL of 10 mM tris base was added to each well to solubilize the SRB before absorbance was measured at 510 nm. The measure of absorbance is directly proportional to cell growth and is thus used to calculate % reduction in the rate of cell proliferation according to control DMSO treated cells. All experiments were performed in triplicates; mean % age proliferation values with ±SD were plotted here.

PANC-1 cells [2] = test: Colony formation (soft agar, clonogenic) assay
Description: To determine the efficiency of GSK3β inhibitors in combination with the TRIAL on anchorage independent growth of PANC-1 cells soft agar assay were performed. The base agar (0.5%) was prepared by mixing equal amounts of 1% agar with 2× media (20% FBS and 2× antibiotics) filled in 6-well plate. Simultaneously, PANC-1 cells (14000/well) mixed with 2× media containing different concentrations of identified compounds alone or in combination with TRAIL mixed with 0.7% of sterile agar to achieve final concentration of […] top agar. The cell suspension was spread on solidified base agar. Then the plates were incubated in CO2 incubator for 14 days and the cells were fed with fresh media containing respective concentration and combination of TRIAL every 3 days. Upon termination (after 14 days of incubation) plates were stained with 0.005% of crystal violet for 1 h and excess stain was removed by washing with MQ. The number of blue colonies were counted using olympus Xi71 microscope.

PANC-1 cells [3] = test: Cell cycle analysis / cell death by PI uptake, flow cytometry; settings: for cell death by FACS: 25 uM compound; for cell death (% of cells in subG1): in combination with TRAIL versus compounds alone or TRAIL alone
Description: To determine effect of GSK3β inhibitors on cell death and/or cell cycle progression, PANC-1 cells were treated with identified molecules with or without TRAIL. Upon treatment with compounds in combination with TRAIL, PANC-1 cell death was determined with propidium iodide (PI) uptake measured by Flow cytometry. Treated cells were harvested in cold PBS and fixed in 70% ethanol at −20° C. for overnight. The fixed cells were by centrifugation and re-suspended in PI ([…]) solution containing RNase (0.1 mg/mL) and Triton X-100 (0.05%). The cells were incubated in dark for 1 h at room temperature. The excess PI was washed out using PBS, the resultant PI uptake was analyzed by FACS Caliber System (BD Bio-science, Erembodegem, Belgium) in an FL-2 fluorescence detector (10000 events were recorded for each condition). Flow cytometry data was analyzed using FCS express 4 software (De Novo Software, Los Angeles, Calif., USA).

[4] = system: cellular GSK3β signalling in PANC-1 cells; test: Western blot of GSK3β signalling and NFkB target proteins in PANC-1 cells; settings: for phosphorylation of GSK3β: PANC-1 cells treated with compound; for β-catenin level: PANC-1 cells versus control (DMSO); for BCL2 and XIAP levels: compound with TRAIL versus TRAIL alone or compound alone; for bcl2 and xiap expression: dose dependence of compound; for Cyclin D1 levels / phosphorylation of GSK3β (9th serine residue): in combination with TRAIL; for p-GS (phosphorylated glycogen synthase) level: increasing concentrations of compound, total GS unaffected
Description: The compounds inhibiting GSK3β activity in-vitro added to PANC-1 cells to determine their potential against intracellular GSK3β signalling pathways in cancer cells. Briefly, PANC-1 cells were plated in 60 mm plates (100,000 cells/4 mL) and cultured in the standard DMEM medium containing 10% serum. After culturing for 18 hrs, different concentrations of test compounds or standard controls prepared in DMSO were added to culture media to achieve final concentration 0 to 100 μM of compound to cells. Cells were further continued to grow for 48 h with constant supply of 5% CO2 in humid incubator. The time course (0 to 48 h) experiment was carried out simultaneously with fixed concentration of compound showing 50% growth inhibition. At the end of the experiments, all cells were scraped directly in cold PBS and washed for 3 times before lysis directly in 2D lysis buffer (8M urea, 2M thiourea, 4% CHAPS, 4 mM tris base and 65 mM DTT) for isolation of proteins to perform western blots. The protein concentration was determined by modified Bradford assay.
To perform western blot, protein extracts were separated on 12% SDS-PAGE and electrophoretically (1 mA/cm^2 membrane for 1 hr) transferred onto the nitrocellulose membrane by semi-dry method. After protein transfer, membrane was stained with Ponceau S solution (0.2% Ponceau S in 3% Trichloroacetic acid) for 2 min to see efficiency of electrophoretic transfer. The membrane was destained in ddH2O to visualize the protein bands and further destained with TBST (20 mM Tris, 138 mM NaCl, pH 7.6 and 0.1% Tween 20) for blotting. To avoid non-specific detection of target proteins, blotted membranes were blocked with BSA (3% BSA in TBST solution). All antibodies against specific protein targets of interest were purchased from Cell Signaling Technology, USA if not mentioned specifically. Then the blots were incubated with antibodies prepared in blocking buffer (1:1000 Antibody to blocking buffer dilution) for 18 h with constant shaking at 4° C. Three washing steps in PBS each for 5 mins removed the excess and non-specific antibodies. For visualization, blots were incubated with secondary antibody conjugated to either horseradish peroxidase or alkaline phosphatase [anti-(mouse IgG) or anti-(rabbit IgG), diluted 1:5000 in TBST] for 1 h at room temperature. After three washes in PBS, the reaction was developed either by addition of LumiGLO substrate (Cell Signaling Technology) followed by capturing on X-ray film or addition of chromogenic NBT (nitro-blue tetrazolium chloride) and BCIP (5-bromo-4-chloro-3′-indolyphosphate p-toluidine salt) substrate for alkaline phosphatase developing purple colored bands. The blots were scanned for densitometry performed using Image-J program.

[5] = compound in the presence of TRAIL 10 ηg/mL

| Structure (SMILES) | inhibition at 30 µM (PANC-1 cells [1]) [%] | effectiveness against cell growth / sensitisation to TRAIL (PANC-1 cells [1]) | inhibition of colony formation (PANC-1 cells [2]; compound alone, 14 days) | inhibition of colony formation (PANC-1 cells [2]; [5]) | cell death by FACS (PANC-1 cells [3]) | cell death (% of cells in subG1) (PANC-1 cells [3]) | phosphorylation of GSK3β [4] | β-catenin level [4] | BCL2 and XIAP levels [4] | bcl2 and xiap expression [4] | Cyclin D1 levels [4] | phosphorylation of GSK3β (9th serine residue) [4] | p-GS (phosphorylated glycogen synthase) level [4] |
| --- | --- | --- | --- | --- | --- | --- | --- | --- | --- | --- | --- | --- | --- |
| COc1ccccc1N1CCN(CC2CC3(CO2)C(=O)Nc2ccccc23)CC1 (centres unmarked) [AB-U, 5-((4-(2-Methoxyphenyl)piperazin-1-yl)methyl)-4,5-dihydro-2H-spiro[furan-3,3′-indolin]-2′-one] | 50 | more effective | dose-dependent inhibition | more effective inhibition of colony formation | cell death even at 25 uM | more cell death | significantly decreased | accumulation of β-catenin | synergistic effect | decreased in a dose dependent manner | significantly reduced | synergistic effect | significantly decreased |
| CCOC(=O)c1ccc(-c2ccccc2OCc2cn(CC3CC4(CO3)C(=O)Nc3ccccc34)nn2)nc1C (centres unmarked) [AB-O, Ethyl 2-methyl-6-(2-((1-((2′-oxo-4,5-dihydro-2H-spiro[furan-3,3′-indoline]-5-yl)methyl)-1H-1,2,3-triazol-4-yl)methoxy)phenyl)nicotinate] | 50 | more effective | dose-dependent inhibition | more effective inhibition of colony formation | cell death even at 25 uM | more cell death | significantly decreased | accumulation of β-catenin | synergistic effect | decreased in a dose dependent manner | significantly reduced | synergistic effect | significantly decreased |
